Experimental data reported in article PMC10509173, “Deep learning driven de novo drug design based on gastric proton pump structures” (Communications Biology, 2023).
“And” between values parts separate entries of the source, which are not always exact repeats. Identical values can stand only once. Like-named read-outs stand apart in the source and are kept apart here. Blank lines part the entries; values can stand above or below the molecule they belong to.

How the values were obtained:
H+,K+-ATPase [1] = system: H+,K+-ATPase; design: method as in PMID 35604136, PMID 28747707; details: cited from earlier work
H+,K+-ATPase [2] = molecular target: T1, H+,K+-ATPase (Sus scrofa, UniProt P19156); assay: Dose-dependent inhibition of H+,K+-ATPase activity, membrane fractions; details: for H+,K+-ATPase activity, raw data of dose-dependent inhibition: single replicate values
T1 sequence (P19156 2-1034 limits assumed): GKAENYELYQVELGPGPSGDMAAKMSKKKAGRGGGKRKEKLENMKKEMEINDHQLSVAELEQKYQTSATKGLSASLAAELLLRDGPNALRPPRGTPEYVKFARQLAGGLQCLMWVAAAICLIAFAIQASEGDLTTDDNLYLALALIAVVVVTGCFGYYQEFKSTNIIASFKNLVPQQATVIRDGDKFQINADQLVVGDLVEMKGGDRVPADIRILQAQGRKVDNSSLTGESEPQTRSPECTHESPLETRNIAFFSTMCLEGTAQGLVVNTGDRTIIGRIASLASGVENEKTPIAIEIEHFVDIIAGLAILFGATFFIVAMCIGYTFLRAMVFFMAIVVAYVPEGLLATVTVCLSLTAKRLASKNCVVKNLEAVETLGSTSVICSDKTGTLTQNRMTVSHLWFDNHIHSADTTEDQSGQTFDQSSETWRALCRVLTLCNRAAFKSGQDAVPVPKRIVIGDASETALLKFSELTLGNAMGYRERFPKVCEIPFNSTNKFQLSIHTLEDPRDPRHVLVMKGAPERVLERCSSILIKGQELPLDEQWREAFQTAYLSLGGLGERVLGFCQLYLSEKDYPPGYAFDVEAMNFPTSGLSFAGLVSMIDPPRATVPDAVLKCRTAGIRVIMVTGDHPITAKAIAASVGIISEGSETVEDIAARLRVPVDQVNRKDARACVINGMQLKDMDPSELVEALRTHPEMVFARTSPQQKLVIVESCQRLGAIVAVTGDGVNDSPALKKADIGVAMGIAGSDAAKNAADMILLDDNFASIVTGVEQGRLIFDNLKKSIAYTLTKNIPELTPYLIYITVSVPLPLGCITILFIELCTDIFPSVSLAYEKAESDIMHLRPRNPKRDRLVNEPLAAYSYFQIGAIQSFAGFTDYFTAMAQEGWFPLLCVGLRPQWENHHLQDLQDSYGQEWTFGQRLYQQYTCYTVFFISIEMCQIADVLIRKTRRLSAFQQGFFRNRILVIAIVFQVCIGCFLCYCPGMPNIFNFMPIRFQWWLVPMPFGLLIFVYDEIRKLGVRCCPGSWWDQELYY
T1 sequence (P18434 whole entry partner): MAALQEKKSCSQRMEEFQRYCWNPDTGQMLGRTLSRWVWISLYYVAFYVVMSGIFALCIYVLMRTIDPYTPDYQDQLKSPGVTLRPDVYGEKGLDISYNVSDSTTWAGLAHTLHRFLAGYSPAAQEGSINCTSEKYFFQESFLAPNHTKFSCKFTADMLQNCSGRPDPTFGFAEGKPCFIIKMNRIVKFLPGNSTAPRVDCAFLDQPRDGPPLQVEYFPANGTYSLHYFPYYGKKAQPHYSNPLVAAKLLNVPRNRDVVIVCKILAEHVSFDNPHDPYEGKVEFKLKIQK

H+,K+-ATPase [3] = molecular target: T1, H+,K+-ATPase; assay: K+-dependent ATPase assay, double reciprocal plot and Ki estimation; format: biochemical, pig; design: H^+,K^+-ATPase-enriched membrane fractions were purified from pig stomach; from tissue; host or cells: pig stomach (gastric membrane fractions); reciprocal K+-stimulated ATPase activity, Lineweaver-Burk raw data: unit not given here; details: for reciprocal K+-stimulated ATPase activity, Lineweaver-Burk raw data: replicate values
Text: Data measured from 96-well plate contained triplicates of four different sets of K^+-dependent ATPase assays in the absence or presence of three different concentrations of synthesized compounds. Data were corrected for background values in the absence of K^+ at each compound concentration, and plot them against the double reciprocal axes in Supplementary Fig. 5. Data were also fitted by using simultaneous nonlinear regression as described previously to estimate their Ki values.

H+,K+-ATPase [4] = molecular target: H+,K+-ATPase; design: method as in PMID 2837231; details: cited from earlier work

SMILES: Cc1nc2c3c(ccn2c1C)[C@@H](O)[C@H](O)[C@@H](c1ccccc1)N3 [BYK99]
times higher apparent affinity than SCH28080 (H+,K+-ATPase [1]): more than 25 times

IC50 (H+,K+-ATPase [2]): 700 ± 40 nM
Ki (H+,K+-ATPase [3]; K+-competitive inhibition, read-out: Ki): 93.8 nM
reciprocal K+-stimulated ATPase activity, Lineweaver-Burk raw data (H+,K+-ATPase [3]; compound concentration 50, 1/KCl 0.05 (units not given)): 0.0059 and 0.0057 and 0.006
reciprocal K+-stimulated ATPase activity, Lineweaver-Burk raw data (H+,K+-ATPase [3]; compound concentration 50, 1/KCl 0.1 (units not given)): 0.0075 and 0.0077 and 0.0078
reciprocal K+-stimulated ATPase activity, Lineweaver-Burk raw data (H+,K+-ATPase [3]; compound concentration 50, 1/KCl 0.125 (units not given)): 0.0067 and 0.0066 and 0.007
reciprocal K+-stimulated ATPase activity, Lineweaver-Burk raw data (H+,K+-ATPase [3]; compound concentration 50, 1/KCl 0.2 (units not given)): 0.0088 and 0.0086 and 0.0089
reciprocal K+-stimulated ATPase activity, Lineweaver-Burk raw data (H+,K+-ATPase [3]; compound concentration 50, 1/KCl 0.5 (units not given)): 0.0111 and 0.011 and 0.0112
reciprocal K+-stimulated ATPase activity, Lineweaver-Burk raw data (H+,K+-ATPase [3]; compound concentration 50, 1/KCl 1 (units not given)): 0.0282 and 0.0275 and 0.0291
reciprocal K+-stimulated ATPase activity, Lineweaver-Burk raw data (H+,K+-ATPase [3]; compound concentration 50, 1/KCl 2 (units not given)): 0.035 and 0.034 and 0.0286
reciprocal K+-stimulated ATPase activity, Lineweaver-Burk raw data (H+,K+-ATPase [3]; compound concentration 100, 1/KCl 0.05 (units not given)): 0.0066 and 0.0063 and 0.0065
reciprocal K+-stimulated ATPase activity, Lineweaver-Burk raw data (H+,K+-ATPase [3]; compound concentration 100, 1/KCl 0.1 (units not given)): 0.0087 and 0.0094 and 0.0098
reciprocal K+-stimulated ATPase activity, Lineweaver-Burk raw data (H+,K+-ATPase [3]; compound concentration 100, 1/KCl 0.125 (units not given)): 0.0086 and 0.0083 and 0.0082
reciprocal K+-stimulated ATPase activity, Lineweaver-Burk raw data (H+,K+-ATPase [3]; compound concentration 100, 1/KCl 0.2 (units not given)): 0.011 and 0.0106 and 0.0113
reciprocal K+-stimulated ATPase activity, Lineweaver-Burk raw data (H+,K+-ATPase [3]; compound concentration 100, 1/KCl 0.5 (units not given)): 0.0167 and 0.0156 and 0.0168
reciprocal K+-stimulated ATPase activity, Lineweaver-Burk raw data (H+,K+-ATPase [3]; compound concentration 100, 1/KCl 1 (units not given)): 0.0412 and 0.0415 and 0.043
reciprocal K+-stimulated ATPase activity, Lineweaver-Burk raw data (H+,K+-ATPase [3]; compound concentration 100, 1/KCl 2 (units not given)): 0.056 and 0.0496 and 0.0604
reciprocal K+-stimulated ATPase activity, Lineweaver-Burk raw data (H+,K+-ATPase [3]; compound concentration 400, 1/KCl 0.05 (units not given)): 0.0084 and 0.0076 and 0.008
reciprocal K+-stimulated ATPase activity, Lineweaver-Burk raw data (H+,K+-ATPase [3]; compound concentration 400, 1/KCl 0.1 (units not given)): 0.0109 and 0.0112 and 0.011
reciprocal K+-stimulated ATPase activity, Lineweaver-Burk raw data (H+,K+-ATPase [3]; compound concentration 400, 1/KCl 0.125 (units not given)): 0.0123 and 0.011 and 0.0111
reciprocal K+-stimulated ATPase activity, Lineweaver-Burk raw data (H+,K+-ATPase [3]; compound concentration 400, 1/KCl 0.2 (units not given)): 0.0153 and 0.0154 and 0.0157
reciprocal K+-stimulated ATPase activity, Lineweaver-Burk raw data (H+,K+-ATPase [3]; compound concentration 400, 1/KCl 0.5 (units not given)): 0.0261 and 0.0253 and 0.0282
reciprocal K+-stimulated ATPase activity, Lineweaver-Burk raw data (H+,K+-ATPase [3]; compound concentration 400, 1/KCl 1 (units not given)): 0.069 and 0.0649 and 0.0653
reciprocal K+-stimulated ATPase activity, Lineweaver-Burk raw data (H+,K+-ATPase [3]; compound concentration 400, 1/KCl 2 (units not given)): 0.097 and 0.0973 and 0.106
inhibition mode (H+,K+-ATPase [3]; double reciprocal plot, versus K+): purely competitive with K^+
SMILES: CNCc1ccc(OCc2ccccc2OCc2ccccc2)cc1 [DQ-06]
H+,K+-ATPase activity, raw data of dose-dependent inhibition (H+,K+-ATPase [2]; [PCAB] -3.30103 (log, unit not given)): 0.01 and -0.01 and 0.22 and -0.22 and -0.74 and -0.4
H+,K+-ATPase activity, raw data of dose-dependent inhibition (H+,K+-ATPase [2]; [PCAB] -3.52288 (log, unit not given)): 1.74 and 1.71 and 2.79 and 2.38 and 1.76 and 2.41
H+,K+-ATPase activity, raw data of dose-dependent inhibition (H+,K+-ATPase [2]; [PCAB] -4 (log, unit not given)): 5.02 and 5.03 and 3.19 and 3.1 and 2.85 and 2.51
H+,K+-ATPase activity, raw data of dose-dependent inhibition (H+,K+-ATPase [2]; [PCAB] -4.30103 (log, unit not given)): 5.51 and 5.6 (2×) and 5.65 and 5.75 and 5.83
H+,K+-ATPase activity, raw data of dose-dependent inhibition (H+,K+-ATPase [2]; [PCAB] -4.52288 (log, unit not given)): 5.58 and 6.16 and 6.26 and 6.39 and 7.23 and 7.48
H+,K+-ATPase activity, raw data of dose-dependent inhibition (H+,K+-ATPase [2]; [PCAB] -5 (log, unit not given)): 9.37 and 9.6 and 11.28 and 10.91 and 10.15 and 11.11
H+,K+-ATPase activity, raw data of dose-dependent inhibition (H+,K+-ATPase [2]; [PCAB] -5.52288 (log, unit not given)): 20.15 and 21.1 and 19.71 and 21.04 and 20.73 and 20.63
H+,K+-ATPase activity, raw data of dose-dependent inhibition (H+,K+-ATPase [2]; [PCAB] -6 (log, unit not given)): 39.09 and 39.39 and 38.28 and 36.79 and 38.33 and 39.14
H+,K+-ATPase activity, raw data of dose-dependent inhibition (H+,K+-ATPase [2]; [PCAB] -6.30103 (log, unit not given)): 57.6 and 58.17 and 57.79 and 57.15 and 58.12 and 57.53
H+,K+-ATPase activity, raw data of dose-dependent inhibition (H+,K+-ATPase [2]; [PCAB] -7 (log, unit not given)): 90.69 and 91.88 and 87.97 and 84.74 and 90.82 and 88.26
H+,K+-ATPase activity, raw data of dose-dependent inhibition (H+,K+-ATPase [2]; [PCAB] -8 (log, unit not given)): 101.14 and 100.91 and 95.09 and 94.94 and 96.97 and 96.94
H+,K+-ATPase activity, raw data of dose-dependent inhibition (H+,K+-ATPase [2]; [PCAB] -11 (log, unit not given; possibly placeholder for no compound)): 102.84 and 103.26 and 99.81 and 97.12 and 97.38 and 101.76

SMILES: Cc1nc2c(OCc3ccccc3)cccn2c1CC#N [SCH28080]
Ki (H+,K+-ATPase [4]; pH 6.11): 20 nM
Ki (H+,K+-ATPase [4]; pH 7.35): 66 nM

SMILES: COCCO[C@@H]1c2ccn3c(C)c(C)nc3c2N[C@H](c2ccccc2)[C@H]1O [soraprazan]
times higher apparent affinity than SCH28080 (H+,K+-ATPase [1]): > 7 times
